Test in all cases: DTP human tumour cell line panel, 48 h
Experiment [1] relates to HS 578T breast.
In experiment [2] the test system is SF-295 CNS.
Experiment [3] concerns TK-10 renal.
Experiment [4] deals with MCF7 breast.
In experiment [5] the test system is ACHN renal.
For experiment [6], the system named is SR leukemia.
The subject of experiment [7] is UACC-257 melanoma.
Experiment [8] deals with RXF 393 renal.
The test system of experiment [9] is KM12 colon.
Experiment [10] relates to HCT-116 colon.

“And” between values parts separate entries of the source, which are not always exact repeats. Equal entries are not always repeated.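 Briefly, cells in 96-well plates were exposed to five compound concentrations for 48 h, and endpoints were estimated by linear interpolation. GI50: concentration for 50% inhibition of growth. At the TGI there is no net growth.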

This passage reports GI50 and TGI results from PubChem BioAssay (NCI).

Broadly, the GI50 is the concentration at which growth is held to half of that of the control. Usually TGI stands for the concentration at which net growth stops. A higher TGI goes with lower sensitivity of the cells. Take `O=C(/C=C/c1ccc(O)c(O)c1)NCc1c[nH]c2ccccc12`: the GI50 in experiment [1] was 73.7 µM; in [2], 62.4 µM; in experiment [3], 18.1 µM; in experiment [4], 70.3 µM; in [5], 45.8 µM; in experiment [6], 10 µM. For the same molecule, the GI50 in [7] was above 100 µM; in experiment [8], above 100 µM; in [9], 66.7 µM; in experiment [10], 62.2 µM. In addition, the TGI in experiment [1] is above 100 µM; in [2], above 100 µM; in experiment [3] it was above 100 µM; in experiment [4], above 100 µM; in [5] it was above 100 µM; in [6], 37 µM. In addition, the total growth inhibition concentration (TGI) in experiment [7], in [8], in experiment [9] and in experiment [10] was above 100 µM throughout.

In the case of `CCCn1cnc2c(SCC(=O)O)nc(N)nc21`, the TGI in experiment [1], in [2], in experiment [3], in [4], in experiment [5] and in [6] was above 100 µM throughout. The TGI in experiment [7], in [8], in [9] and in [10] was above 100 µM throughout.

As to `Cc1nc2ccc(Br)cc2c(=O)n1-c1ccc(NC2OCC(O)C(O)C2O)cc1` (configuration not stated), the TGI in experiment [1] is above 100 µM; in experiment [2], above 100 µM; in experiment [3] it was above 100 µM; in experiment [4], 51.9 µM and > 100 µM; in experiment [5], above 100 µM; in [6], 59.7 µM and > 100 µM. For the same molecule, the TGI was above 100 µM in experiment [7]; 51.4 µM and > 100 µM in experiment [8]; 68.4 µM and > 100 µM in [9]; 53.7 µM and > 100 µM in [10]. The GI50 in [4] is 20.8 µM and > 100 µM; in experiment [5], 35.6 µM and > 100 µM; in experiment [6] it was 25 µM and 61 µM; in experiment [7], above 100 µM; in experiment [8], 32.1 µM and > 100 µM; in experiment [9], 26.3 µM and > 100 µM. Further, the GI50 in [10] was 17.7 µM and 79.2 µM.

For the molecule `C[Si](C)(c1ccc(C(=O)O)cc1)c1ccc(C(=O)O)cc1`, the TGI in [1], in [2], in experiment [3], in experiment [4], in [5] and in [6] was above 100 µM throughout. In addition, the TGI in experiment [7], in [8], in experiment [9] and in experiment [10] was above 100 µM throughout.

For the molecule `CN1CCN(CCOc2ccc(-c3cnc4c(-c5cccc(F)c5)cnn4c3)cc2)CC1`, the GI50 was 1.74 µM in [1]; 1.71 µM in [2]; 2.07 µM in [3]; 1.51 µM in experiment [4]; 1.66 µM in experiment [5]; 4.02 µM in experiment [6]. For the same molecule, the GI50 is 2.33 µM in experiment [7], 1.66 µM in experiment [8], 1.5 µM in experiment [9] and 1.79 µM in experiment [10]. Besides, the TGI in [1] was 4.79 µM; in [2], 3.27 µM; in experiment [3] it was 3.77 µM; in [4], 3.13 µM; in [5], 3.02 µM; in experiment [6], above 100 µM. Further, the TGI in [7] was 5.71 µM; in [8], 3.22 µM; in experiment [9], 3.06 µM; in experiment [10], 3.51 µM.

For `COc1ccc(C(=O)c2cc3c(N)c(C(=O)Nc4ccccc4)sc3nc2C)cc1`, the GI50 is 0.331 µM in experiment [1]; 0.639 µM in [2]; 8.04 µM in experiment [3]; 0.373 µM in [4]; 1.56 µM in experiment [5]; 0.376 µM in experiment [6]. Also, the GI50 in experiment [7] is 47.1 µM; in [8], 0.485 µM; in experiment [9], 0.539 µM; in experiment [10], 0.635 µM. Besides, the TGI in [1] is 67.5 µM; in [2], above 100 µM; in experiment [3], above 100 µM; in [4], above 100 µM; in experiment [5] it was above 100 µM; in [6] it was above 100 µM. Further, the TGI in experiment [7], in experiment [8], in [9] and in [10] was above 100 µM throughout.

In the case of `CCOc1ccc2c(c1)C(=O)c1c-2n(CCCBr)c(=O)c2cc([N+](=O)[O-])ccc12`, the GI50 in experiment [1] is above 100 µM; in [2], 12.3 µM; in [3] it was above 100 µM; in [4], 0.344 µM; in experiment [5], 3.76 µM; in experiment [6] it was 0.554 µM. The GI50 was 40.9 µM in experiment [7], 37.9 µM in [8], 56 µM in experiment [9] and 5.98 µM in experiment [10]. Moreover, the TGI in experiment [1] is above 100 µM; in experiment [2] it was above 100 µM; in experiment [3], above 100 µM; in experiment [4], 63.8 µM; in experiment [5], 69.7 µM; in [6], above 100 µM. The TGI in [7] is 98.3 µM; in [8] it was above 100 µM; in experiment [9], above 100 µM; in experiment [10] it was above 100 µM.

As for `CCCCCCCC(=O)OCCCC1[C@]2(C)CC[C@@]3(C)C([C@H](C)CCC=C(C)C)CC[C@]3(C)C2CC[C@]12OC2(C)C` (some centres not stated), the GI50 in [1] is 40.3 µM; in experiment [2], 31.2 µM; in [3], 30.6 µM; in experiment [4], 34.1 µM; in experiment [5], 22.9 µM; in [6] it was 22.6 µM. Also, the GI50 was 68.2 µM in experiment [7], 21.3 µM in experiment [8], 29.6 µM in [9] and 52.2 µM in experiment [10]. Besides, the TGI is above 100 µM in experiment [1]; above 100 µM in [2]; above 100 µM in experiment [3]; above 100 µM in experiment [4]; 45.4 µM in [5]; 45.7 µM in experiment [6]. The TGI in experiment [7] is above 100 µM; in experiment [8], 49.3 µM; in experiment [9], 84.1 µM; in experiment [10], above 100 µM.
